Experimental data as given in patent US6867320B2, “Substituted phenylalkanoic acid derivatives and use thereof” (Asahi Kasei Pharma Corporation, priority 2002, dated 2005).

System: PGE2 production from IL-1β-stimulated MG-63 cells
Assay: Suppressing action on PGE2 production from IL-1β-stimulated MG-63 cells
Format: cell-based
Conditions: Homo sapiens, IL-1β 1 ng/ml, 18 hours, read-out: PGE2 production suppression ratio
Source text: 1. Suppressing Action on PGE2 Production from IL-1β-Stimulated MG-63 Cells (1) Method for Measurement
An action of suppressing PGE2 production caused by interleukin (IL) 1β as an inflammatory stimulant was studied by the following method. Cells of MG-63, which is a human osteosarcoma cell line (purchased from Dainippon Pharmaceutical), were suspended in EMEM medium (GIBCO) containing 10% fetal bovine serum (BioFluid), and then inoculated to each well of 96-well culture plate at a density of 2×10^4 cells/well and cultured overnight. The medium was changed to EMEM medium containing 0.5% fetal bovine serum, and then a test compound was added with each well. Human interleukin-1β (ENDOGEN) was further added as an inflammatory stimulant at a final concentration of 1 ng/ml. The cells were further cultured for 18 hours. The culture supernatant was collected, and the PGE2 concentration in the culture supernatant was measured by using EIA kit (CAYMAN). By using a well which was not added with the stimulant as a negative control and a well which was added only with the stimulant as a positive control, suppression ratios on PGE2 production were calculated from produced amounts of PGE2 in the well added with the test compound using the following equation. PGE2 production suppression ratio=[1−(C−B)/(A−B)]×100 • A: PGE2 production amount of positive control • B: PGE2 production amount of negative control • C: PGE2 production amount in well added with test compound

Structure (SMILES) | inhibition at 0.4 µM [%]
O=C(O)CCc1ccc(OCc2ccc(C(F)(F)F)cc2)c(-c2ccc3[nH]ccc3c2)c1 [Compound 172, 3-{3-(1H-indol-5-yl)-4-[4-(trifluoromethyl)phenylmethyloxy]-phenyl}propionic acid] | ≥ 50
Cc1cc(C)cc(COc2ccc(CCC(=O)O)cc2-c2ccc3[nH]ccc3c2)c1 [Compound 175, 3-[4-(3,5-dimethylphenylmethyloxy)-3-(1H-indol-5-yl)phenyl]propionic acid] | ≥ 50
O=C(O)CCc1ccc(OC2CCCCCC2)c(-c2ccc3[nH]ccc3c2)c1 [Compound 184, 3-[4-cycloheptyloxy-3-(1H-indol-5-yl)phenyl]propionic acid] | ≥ 50
O=C(O)CCc1ccc(OCc2cc(Cl)cc(Cl)c2)c(-c2ccc3[nH]ccc3c2)c1 [Compound 188, 3-[4-(3,5-dichlorophenylmethyloxy)-3-(1H-indol-5-yl)phenyl]propionic acid] | ≥ 50
O=C(O)CCc1ccc(OCc2ccco2)c(-c2ccc3[nH]ccc3c2)c1 [Compound 194, 3-{4-[(furan-2-yl)methyloxy]-3-(1H-indol-5-yl)phenyl}propionic acid] | ≥ 50
O=C(O)CCc1ccc(OCc2ccoc2)c(-c2ccc3[nH]ccc3c2)c1 [Compound 196, 3-{4-[(furan-3-yl)methyloxy]-3-(1H-indol-5-yl)phenyl}propionic acid] | ≥ 50
O=C(O)CCc1ccc(OCc2cccs2)c(-c2ccc3[nH]ccc3c2)c1 [Compound 198, 3-{3-(1H-indol-5-yl)-4-[(thiophen-2-yl)methyloxy]phenyl}propionic acid] | ≥ 50
CC(C)n1ccc2cc(-c3cc(CCC(=O)O)ccc3OCC3CCCC3)ccc21 [Compound 238, 3-[4-cyclopentylmethyloxy-3-(1-isopropyl-1H-indol-5-yl)phenyl]propionic acid] | ≥ 50
CCCCn1ccc2cc(-c3cc(CCC(=O)O)ccc3OCC3CCCC3)ccc21 [Compound 240, 3-[3-(1-butyl-1H-indol-5-yl)-4-cyclopentylmethyloxyphenyl]propionic acid] | ≥ 50
O=C(O)CCc1ccc(OCC2CCCC2)c(-c2ccc3c(ccn3C3CCCC3)c2)c1 [Compound 242, 3-[3-(1-cyclopentyl-1H-indol-5-yl)-4-cyclopentylmethyloxyphenyl]propionic acid] | ≥ 50
Cc1cn(C)c2ccc(-c3cc(CCC(=O)O)ccc3OCC3CCCC3)cc12 [Compound 252, 3-[4-cyclopentylmethyloxy-3-(1,3-dimethyl-1H-indol-5-yl)phenyl]propionic acid] | ≥ 50
O=Cc1c[nH]c2ccc(-c3cc(CCC(=O)O)ccc3OCC3CCCC3)cc12 [Compound 254, 3-[4-cyclopentylmethyloxy-3-(3-formyl-1H-indol-5-yl)phenyl]propionic acid] | ≥ 50
Cn1cc(C=O)c2cc(-c3cc(CCC(=O)O)ccc3OCC3CCCC3)ccc21 [Compound 255, 3-[4-cyclopentylmethyloxy-3-(3-formyl-1-methyl-1H-indol-5-yl)phenyl]propionic acid] | ≥ 50
CC(=O)c1cn(C)c2ccc(-c3cc(CCC(=O)O)ccc3OCC3CCCC3)cc12 [Compound 259, 3-[3-(3-acetyl-1-methyl-1H-indol-5-yl)-4-cyclopentylmethyloxyphenyl]propionic acid] | ≥ 50
O=C(O)CCc1cc(Cl)c(OCC2CCCC2)c(-c2ccc3[nH]ccc3c2)c1 [Compound 263, 3-[3-chloro-4-cyclopentylmethyloxy-5-(1H-indol-5-yl)phenyl]propionic acid] | ≥ 50
Cn1ccc2cc(-c3cc(CCC(=O)O)cc(N)c3OCC3CCCC3)ccc21 [Compound 269, 3-[3-amino-4-cyclopentylmethyloxy-5-(1-methyl-1H-indol-5-yl)phenyl]propionic acid] | ≥ 50
Cc1[nH]c2ccc(-c3cc(CCC(=O)O)ccc3OCC3CCCCC3)cc2c1C [Compound 273, 3-[4-cyclohexylmethyloxy-3-(2,3-dimethyl-1H-indol-5-yl)phenyl]propionic acid] | ≥ 50
O=C(O)CCc1ccc(OCC2CCCC2)c(-c2ccc3occc3c2)c1 [Compound 277, 3-[3-(benzo[b]furan-5-yl)-4-cyclopentylmethyloxyphenyl]propionic acid] | ≥ 50
Cc1oc2ccc(-c3cc(CCC(=O)O)ccc3OCC3CCCCC3)cc2c1C [Compound 279, 3-[4-cyclohexylmethyloxy-3-(2,3-dimethylbenzo[b]furan-5-yl)phenyl]propionic acid] | ≥ 50

Structure (SMILES) | inhibition at 0.4 µM [%]
Cc1nc2cc(-c3cc(CCC(=O)O)ccc3OCC3CCCC3)ccc2s1 [Compound 283, 3-[4-cyclopentylmethyloxy-3-(2-methylbenzothiazol-5-yl)phenyl]propionic acid] | ≥ 50
Nc1nc2cc(-c3cc(CCC(=O)O)ccc3OCC3CCCC3)ccc2s1 [Compound 285, 3-[3-(2-aminobenzothiazol-5-yl)-4-cyclopentylmethyloxyphenyl]propionic acid] | ≥ 50
CNc1nc2ccc(-c3cc(CCC(=O)O)ccc3OCC3CCCC3)cc2s1 [Compound 297, 3-[4-cyclopentylmethyloxy-3-(2-methylaminobenzothiazol-6-yl)phenyl]propionic acid] | ≥ 50
Cn1c(=N)sc2cc(-c3cc(CCC(=O)O)ccc3OCC3CCCC3)ccc21 [Compound 303, 3-[4-cyclopentylmethyloxy-3-(2-imino-3-methyl-2,3-dihydrobenzothiazol-6-yl)phenyl]propionic acid] | ≥ 50
CN=c1sc2cc(-c3cc(CCC(=O)O)ccc3OCC3CCCC3)ccc2n1C [Compound 305, 3-{4-cyclopentylmethyloxy-3-[3-methyl-2-(methylimino)-2,3-dihydrobenzothiazol-6-yl]phenyl}propionic acid] | ≥ 50
COc1nc2ccc(-c3cc(CCC(=O)O)ccc3OCC3CCCC3)cc2s1 [Compound 306, 3-[4-cyclopentylmethyloxy-3-(2-methoxybenzothiazol-6-yl)phenyl]propionic acid] | ≥ 50
Cc1nc2ccc(-c3cc(CCC(=O)O)ccc3OCC3CCCC3)cc2s1 [Compound 308, 3-[4-cyclopentylmethyloxy-3-(2-methylbenzothiazol-6-yl)phenyl]propionic acid] | ≥ 50
O=C(O)CCc1ccc(OCC2CCCC2)c(-c2ccc3[nH]c(=S)sc3c2)c1 [Compound 309, 3-[4-cyclopentylmethyloxy-3-(2-thioxo-2,3-dihydrobenzothiazol-6-yl)phenyl]propionic acid] | ≥ 50
O=C(O)CCc1ccc(OCC2CCCC2)c(-c2ccc3[nH]c(=O)sc3c2)c1 [Compound 310, 3-[4-cyclopentylmethyloxy-3-(2-oxo-2,3-dihydrobenzothiazol-6-yl)-phenyl]propionic acid] | ≥ 50
Cn1c(=O)sc2cc(-c3cc(CCC(=O)O)ccc3OCC3CCCC3)ccc21 [Compound 313, 3-[4-cyclopentylmethyloxy-3-(2-oxo-3-methyl-2,3-dihydrobenzothiazol-6-yl)phenyl]propionic acid] | ≥ 50
O=C(O)CCc1ccc(OCC2CCCC2)c(-c2cnc3ccccc3c2)c1 [Compound 315, 3-[4-cyclopentylmethyloxy-3-(quinolin-3-yl)phenyl]propionic acid] | ≥ 50
O=C(O)CCc1ccc(OCC2CCCCC2)c(-c2ccc3ncccc3c2)c1 [Compound 319, 3-[4-cyclohexylmethyloxy-3-(quinolin-6-yl)phenyl]propionic acid] | ≥ 50
O=C(O)CCc1ccc(OCC2CCCCC2)c(-c2ccc3[nH]c(=O)ccc3c2)c1 [Compound 321, 3-[4-cyclohexylmethyloxy-3-(2-oxo-1,2-dihydroquinolin-6-yl)-phenyl]propionic acid] | ≥ 50
O=C(O)CCc1ccc(OCc2ccccc2)c(-c2ccc3ccccc3c2)c1 [Compound 323, 3-[4-benzyloxy-3-(naphthalen-2-yl)phenyl]propionic acid] | ≥ 50
CC(C)(C)c1ccc(COc2ccc(CCC(=O)O)cc2-c2ccc3[nH]ccc3c2)cc1 [Compound 327, 3-[4-(4-t-butylphenylmethyloxy)-3-(1H-indol-5-yl)phenyl]propionic acid] | ≥ 50
O=C(O)CCc1ccc(OC2CCCCC2)c(-c2ccc3ncsc3c2)c1 [Compound 330, 3-[3-(benzothiazol-6-yl)-4-cyclohexyloxyphenyl]propionic acid] | ≥ 50
COC(=O)CCc1cc(-c2ccc3ccccc3c2)c(OC2CCCC2)c([N+](=O)[O-])c1 [Compound 331, methyl 3-[4-cyclopentyloxy-3-(naphthalen-2-yl)-5-nitrophenyl]propionate] | ≥ 50
Nc1cc(CCC(=O)O)cc(-c2ccc3ccccc3c2)c1OC1CCCC1 [Compound 333, 3-[3-amino-4-cyclopentyloxy-5-(naphthalen-2-yl)phenyl]propionic acid] | ≥ 50
O=C(O)CCc1cc(O)c(OCC2CCCC2)c(-c2ccc3ccccc3c2)c1 [Compound 568, 3-[4-cyclopentylmethyloxy-3-hydroxy-5-(naphthalen-2-yl)phenyl]propionic acid] | ≥ 50
